Measured values from patent publication US20150233925A1, “Assays and Cell-Based Tests Using a Receptor Na/K-ATPase/Src Complex and Uses Thereof” (The University of Toledo, priority 2012, published 2015).
“Also recorded” adds a separate entry of the source.

Experiments:
ERK in LLC-PK1 cells = test: Western blot of activated-ERK in LLC-PK1 cells; format: cell-based, pig; conditions: pretreated 30 min, ouabain 1 nM for 1 h
Experimental: LLC-PK1 cells were serum-starved overnight, washed and pretreated with Ferulic acid (A) for 30 min. Both control and compounds-pretreated cells were exposed to ouabain (1 nM) for 1 h. Cell lysates were collected, separated by SDS-PAGE and probed for activated-ERK and total-ERK. A representative western blot is shown. The quantitative data from three to four separate experiments were presented. (***, p<0.001 vs control; #, p<0.05 vs Oua).
The experiments were done as in FIG. 6D. The quantitative data from four separate experiments were presented. (***, p<0.001 vs control; ## #, p<0.001 vs Oua).
(§1) Cells were washed with PBS and solubilized in modified ice-cold radioimmune precipitation assay buffer, and subjected to Western blot analysis. Protein signals were detected using an ECL kit and quantified using ImageJ.

[1] = target: T1, Na/K-ATPase/Src receptor complex (Sus scrofa, UniProt P05024); test: Reconstituted Na/K-ATPase/Src receptor complex, Src pY418 by Western blot (kinase activity assay of Src); format: biochemical, pig; conditions: ouabain 1 μM, 100 μM vanade to inactivate ATPase activity
T1 construct: The α1 Na/K-ATPase was purified from pig kidney; tissue Upstate Biotechnology (Src only); host or cells: pig kidney (Na/K-ATPase)
Experimental: (§2) In one example, the FRET-based in vitro high throughput assay utilizes the in vitro reconstitution of receptor Na/K-ATPase and Src, and a peptide Src substrate-based FRET assay. […] To reconstitute the receptor α1 Na/K-ATPase/Src complex, purified pig kidney Na/K-ATPase was mixed with purified recombinant Src. This receptor complex has an inhibited Src activity. The binding of agonists to the receptor complex releases the inhibited Src and result in an increase in Src activity, which is measured by a peptide-based FRET analysis (FIG. 2A, FIG. 2B). To screen the agonist of receptor Na/K-ATPase/Src complex, the reconstituted receptor is exposed to compounds, and then measured for Src activation using the peptide-based FRET assay.
Phosphorylation of Src pY 418, as an indicator of Src activation, was measured by Western blot. Ouabain was used at 1 μM and the assay was done in the presence of 100 μM vanade to inactivate ATPase activity. Values are mean±S.E. of at least three independent experiments. * p<0.05 compared with control. ** p<0.01 compared with control.
(§3) To assay for receptor antagonist, the reconstituted receptor was exposed to compounds in the presence and absence of an agonist (ouabain) and then assessed whether the compounds could antagonize ouabain-induced activation of Src. To verify that they are specific antagonists of receptor Na/K-ATPase/Src complex, their effects on ouabain-, EGF- and dopamine-induced signal transduction was measured in LLC-PK1 and PY-17 cells.
To determine whether the compound affect the Na/K-ATPase/Src receptor activity, the compounds was incubated with the purified Src (4.5 U) and 1 μg Na/K-ATPase for 15 min at 37° C. Afterward, 2 mM ATP/Mg^2+ was added. The reaction continued for 15 min at 37° C. and was stopped by addition of SDS sample buffer. Afterward, the Src pY418 was measured by anti-pY418 antibody to indicate Src activation.

[2] = target: T1, Na/K-ATPase/Src receptor complex; test: FRET based high throughput screen for agonists and antagonists; format: biochemical, pig; conditions: screen with ouabain plus compounds, followed by cell-based analyses
Text: Referring now to FIGS. 2A and 2B, there are shown schematic illustrations of a FRET based high throughput assay for agonist and antagonist. […] A pathway-based approach is useful to screen for agonists of Na/K-ATPase/Src receptor targets. Agonist can interact with Na/K-ATPase resulting Src phosphorylation. This active Src transfers the γ-phosphate of ATP to a single tyrosine residue in the synthetic peptide substrate. Then, a site specific protease recognizes and cleaves non-phosphorylated peptides. […] Cleavage disrupts FRET on the peptide, whereas uncleaved, phosphorylated peptides maintain FRET.
This assay is similar as the agonist screening. For example, in the presence of ouabain, antagonist can reduce ouabain induced peptide substrate phosphorylation.
as §2
The chemical library used for screening in the present study contained 100 structurally diverse, drug-like, naturally occurring organic compounds or their semisynthetic derivatives. Stock compounds were prepared at 10 mM in DMSO. The specific activities of Na/K-ATPase of various kidney preparations were in the range of 900-1,200 μmol/mg/h. The high throughput screen was conducted in a Corning 384-well low-volume assay plates at room temperature.
The first step was Kinase Reaction with the final reaction volume of 10 μl. The purified Src (4.5 U) was incubated with 2 μg of the purified Na/K-ATPase in phosphate-buffered saline (PBS) for 5 min. Afterward, the Na/K-ATPase/Src complex was exposed to compounds to screen for agonist or ouabain 10 μM plus compounds to screen antagonists for 10 min. Then, the Src kinase substrate Tyr 2 peptide or phosphor-peptide (control) was added. The reaction was initiated by addition of 2 mM ATP/Mg^2+, continued for 60 min.
The second step was Development Reaction. Each well was added 5 μl Development Solution, then mix the plate and incubate another 60 min. The assay was stopped by adding 5 μl stop reagent and then fluorescent signals were measured.

ERKs in LLC-PK1 cells = test: Immunostaining assay for active ERK in LLC-PK1 cells; format: cell-based, pig; conditions: pretreated cells exposed to 1 nM ouabain for 60 min
Experimental: as §3
LLC-PK1 cells were pretreated with different concentrations of MB5 for 15 min, exposed to 1 nM ouabain for 60 min, and assayed for active ERKs. A representative set of images is shown. LLC-PK1 cells were pretreated with different concentrations of MB5 for 15 min, exposed to stimuli for either 10 or 3 min, and assayed for active ERKs. A representative set of images is shown.
The data presented in FIGS. 6C-6E show blocking ouabain-induced ERK activation by other antagonists of receptor Na/K-ATPase/Src complex. […] Both control and Tanshinone I-pretreated cells were exposed to ouabain (1 nM) for 1 hour, and processed for immuno-staining of active ERK as in FIG. 6A. A representative set of images are presented from three separate experiments.
LLC-PK1 cells grown on coverslip were serum-starved and treated with MB5 or stimuli for indicated time. […] The signals were detected by a Leica (Wetzlar, Germany) confocal microscope. […]

[3] = system: ouabain-induced signal transduction in cultured cells; test: Ouabain-induced signal transduction in cultured cells; format: cell-based
Experimental: as §3

[4] = system: Src in LY-F286A-19 cells (F286A mutant Na/K-ATPase); test: Cell-based Src activation assay, LY-F286A-19 cells; conditions: ouabain 10 min
Experimental: (§4) The third assay uses other two cell lines (LY-I279A-3, LY-F286A-19), where the expressed I279A or F286A mutant Na/K-ATPase was defective in conformational transition (I279A and F286A mutants were defective in E1 to E2 and E2 to E1 conformational transition, respectively). […] Cell (LY-I279A-3 and LY-F286A-19) based Assay for agonist (ouabain): Cells were treated with indicated concentration of ouabain for 10 min, and total cell lysates were analyzed for pY418 and total Src. […] Values are mean±S.E. of at least three independent experiments. * p<0.05 compared with each control.
as §1

[5] = system: Src in AAC-19 cells (rat α1-rescued PY-17 cells); test: Cell-based Src activation assay, control cell AAC-19
Experimental: (§5) To confirm that these agonists activate Src through the Na/K-ATPase, three complementary cell-based assays were established. One assay uses a LLC-PK1 derived al knockdown PY-17 cell, a control cell P11 (LLC-PK1transfected with empty vector), and another control cell AAC-19 (rat al-rescued PY-17 cells).
(§6) Referring now to FIG. 3A, cells were treated with indicated concentration of ouabain for 5 min, and total cell lysates were analyzed for pY418 and total Src. […] Values are mean±S.E. of at least three independent experiments. * p<0.05 compared with each control.
as §1

[6] = system: Src in LY-I279A-3 cells (I279A mutant Na/K-ATPase); test: Cell-based Src activation assay, LY-I279A-3 cells; conditions: ouabain 10 min
Experimental: as §4, §1

[7] = system: Src in P11 cells (LLC-PK1 transfected with empty vector); test: Cell-based Src activation assay, control cell P11; parameters: species or system pig
Experimental: as §5, §6, §1

[8] = system: Src in LL-A416P-4 cells (rat α1 A416P mutant-rescued PY-17 cells); test: Cell-based Src activation assay, LL-A416P-4 cells; conditions: ouabain 10 min
Experimental: (§7) The second assay uses another pair of cell lines, LL-A416P-4 and LL-A420P-20. These cells were rat α1 A416P and A420P mutant-rescued PY-17 cells.
Cell (LL-A416P-4 and LL-A420P-20) based assay for agonist (ouabain): Cells were treated with indicated concentration of ouabain for 10 min, and total cell lysates were analyzed for pY418 and total Src. […] Values are mean±S.E. of at least three independent experiments. * p<0.05 compared with each control.
as §1

[9] = system: Src in PY-17 cells (LLC-PK1 derived α1 knockdown); test: Cell-based Src activation assay, α1 knockdown PY-17 cells; parameters: species or system pig; conditions: Na/K-ATPase knockdown
Experimental: as §5, §7, §6, §1

Src in LLC-PK1 cells = test: Cell-based Src activation assay, LLC-PK1 cells; parameters: species or system pig; conditions: 20 μM OA
Experimental: as §7
The pig kidney epithelia cells (LLC-PK1 cells) were obtained from ATCC and maintained in Dulbecco's modified Eagle's medium (DMEM) in the presence of 10% FBS, 100 units/ml penicillin, and 100 μg/ml streptomycin in a 5% CO2 humidified incubator. To eliminate the confounding effect of growth factors in the serum, cells were serum starved over night before experiments.
as §6, §1

## Cc1coc2c1C(=O)C(=O)c1c-2ccc2c(C)cccc12 [tanshinone I]
ERK in LLC-PK1 cells
  effect on ouabain-induced ERK activation: inhibitory effects
[1]
  effect on ouabain-induced Src activation (Src pY418): antagonizing effects
[2]
  identification as antagonist of receptor Na/K-ATPase/Src complex (ouabain antagonist): identified
ERKs in LLC-PK1 cells
  effect on ouabain-induced activation of ERKs: inhibition

## O=c1c2ccc(O)c(O)c2oc2c(O)c(O)ccc12 [MB7, 3,4,5,6-tetrahydroxyxanthone]
[3]
  effect on ouabain-induced signal transduction: antagonize

## COc1cc(/C=C/C(=O)O)ccc1O [ferulic acid]
ERK in LLC-PK1 cells
  effect on ouabain-induced ERK activation: inhibitory effects
[2]
  identification as antagonist of receptor Na/K-ATPase/Src complex (ouabain antagonist): identified; also recorded: receptor antagonists

## Cc1coc2c1C(=O)C(=O)c1c-2ccc2c1CCCC2(C)C [tanshinone IIA]
[1]
  effect on ouabain-induced Src activation (Src pY418): antagonizing effects
[2]
  identification as antagonist of receptor Na/K-ATPase/Src complex (ouabain antagonist): identified

## C[C@@H]1O[C@@H](O[C@H]2C[C@@H](O)[C@]3(CO)[C@H]4[C@H](O)C[C@]5(C)[C@@H](C6=CC(=O)OC6)CC[C@]5(O)[C@@H]4CC[C@]3(O)C2)[C@H](O)[C@H](O)[C@H]1O [ouabain]
[4]
  Src activation (pY418 / total Src): could no longer activate Src
[5]
  Src activation (pY418 / total Src): activate Src
[6]
  Src activation (pY418 / total Src): could no longer activate Src
[7]
  Src activation (pY418 / total Src): activate Src
[8]
  Src activation (pY418 / total Src): activated Src
[9]
  Src activation (pY418 / total Src): abolished their effects

## CCCCCCCC/C=C\CCCCCCCC(=O)O [oleic acid]
Src in LLC-PK1 cells
  Src activation (pY418 / total Src): activated Src

## O=C(O)[C@H](O)Cc1ccc(O)c(O)c1 [danshensu]
[2]
  identification as antagonist of receptor Na/K-ATPase/Src complex (ouabain antagonist): identified
[2]; listed as Tanshensu
  identification as antagonist of receptor Na/K-ATPase/Src complex (ouabain antagonist): receptor antagonists

## COc1cc(/C=C/C(=O)CC(=O)/C=C/c2ccc(O)c(OC)c2)ccc1O [curcumin]
[2]
  identification as antagonist of receptor Na/K-ATPase/Src complex (ouabain antagonist): receptor antagonists

## CC(C)(O)[C@@H]1CC[C@](C)([C@H]2[C@@H](O)C[C@@]3(C)[C@@H]4C[C@H](O[C@@H]5O[C@H](CO)[C@@H](O)[C@H](O)[C@H]5O)[C@H]5C(C)(C)[C@@H](O[C@@H]6OC[C@@H](O)[C@H](O)[C@H]6O)CC[C@@]56C[C@@]46CC[C@]23C)O1 [astragaloside IV]
ERK in LLC-PK1 cells
  effect on ouabain-induced ERK activation: inhibitory effects
[2]
  identification as antagonist of receptor Na/K-ATPase/Src complex (ouabain antagonist): identified; also recorded: receptor antagonists
